Experimental findings from patent publication US20180339066A1, “Methods and Compositions for Enhancing Transduction Efficiency of Retroviral Vectors” (The Scripps Research Institute, priority 2013, published 2018) are described below.

In data set [1] the test system is human cord blood CD34+ cells. Kind of data set: HIV-1 based lentiviral vector transduction of cord blood CD34+ cells, GFP by flow cytometry. It is filed as cell-based. The following applies: for transduction efficiency: added with vector or delayed by 2 or 6 hours. A general note: A flow cytometer gives signals particle by particle.
For data set [2], the system named is stimulated cord blood CD34+ cells. Description: Quantification of HIV-1 reverse transcription products by qPCR. The following applies: MOI=25, 20 μg/ml rapamycin.
Protocol: Quantification of HIV-1 reverse transcription products. Stimulated cord blood CD34^+ cells (2-3E5) were transduced with an MOI of 25 in the presence of 20 μg/ml rapamycin or DMSO, and harvested at 6, 12, or 24 hours after the start of transduction by freezing cell pellets at −80° C. Total DNA was extracted using the QiaAmp DNA mini kit, and treated with Dpnl for 2-4 hours to eliminate plasmid DNA. Quantitative PCR was carried out on the Roche LightCycler 480 using previously published primer and probe sequences (Prasad et al., HIV Protocols: Second Edition 485, 2009).
Data set [3] has as its system human cord blood CD34+ cells. Kind of data set: Integrase-defective lentiviral vector (IDLV) transduction of cord blood CD34+ cells. The note with it: MOI=50, two days after transduction.
Protocol: Human cord blood CD34^+ cells were stimulated for 24 h and transduced with IDLVs, MOI=50, with or without 10 ng/μl rapamycin. GFP expression was assayed by flow cytometry every three days from 2-14 days post transduction. Data represent mean and standard deviation of independent transductions of two separate donors.
Cord blood CD34^+ cells were transduced with IDLVs in the absence or presence of rapamycin, and GFP expression was followed from 2-14 days post transduction.
In a further data set the test system is p21 mRNA. Kind of data set: p21 mRNA quantification by RT-PCR. The note with it: cord blood CD34+ cells, 20 μg/ml rapamycin, 6 hours.
For another data set, the system named is NSG-repopulating cells. Kind of data set: NSG mouse reconstitution with transduced cord blood CD34+ cells (long-term engraftment). It is filed as in vivo, human. On the procedure:
(§1) Colony forming assay, NSG mouse reconstitution, and serial transplantation. For colony forming assays, transduced cord blood CD34^+ HSPCs were counted and 100 cells were seeded in 1.5 ml methocult4434 (StemCell Technologies) in 30 mm dishes in triplicate. Total BFU-E, CFU-GM, CFU-M, and CFU-GEMM colonies, as well as GFP+ colonies, were counted 16-18 days after plating using a fluorescent microscope. […] Mice were bled every 4 weeks starting from 8 weeks post injection, and sacrificed at 19 weeks to assess engraftment and GFP expression in the bone marrow, spleen, and thymus by flow cytometry. For serial transplantation, primary recipients were sacrificed at 12 weeks post injection, and bone marrow cells from both femurs of one mouse were injected into two irradiated secondary recipients, which were again sacrificed at 12 weeks post injection for flow cytometric analysis of bone marrow and spleen. NSG mice were maintained at the Scripps Research Institute Molecular and Experimental Medicine animal facility.
To determine whether primitive HSCs in the heterogeneous CD34^+ population are transduced in the presence of rapamycin, we tested the ability of transduced cord blood CD34^+ cells to engraft irradiated NSG mice. A fraction of transduced cells was assessed in parallel liquid culture and colony forming assays. […] Mice were sacrificed 19 weeks after injection to assess long-term engraftment. […] This four-fold transduction enhancement in NSG-repopulating cells was more pronounced than in parallel liquid culture or CFU assay (FIG. 2C), indicating preferential transduction of primitive HSCs in the presence of rapamycin.

Data set [4] concerns primitive HSCs (serial repopulating cells). Description: Serial NSG mouse transplantation of transduced cord blood CD34+ cells. In kind it is in vivo, human. As to the method:
as §1
To stringently establish transduced cells as primitive HSCs, we carried out serial NSG mouse transplantation with cord blood CD34^+ cells transduced with or without rapamycin. […] Bone marrow cells of secondary recipients were again analyzed 12 weeks post injection.

In another data set the test system is cord blood CD34+ cells. Kind of data set: Colony forming assay and parallel liquid culture of transduced cord blood CD34+ cells. The note with it: stimulated cord blood CD34+ cells, MOI=25. In kind it is cell-based, human. On the procedure:
as §1
To determine whether primitive HSCs in the heterogeneous CD34^+ population are transduced in the presence of rapamycin, we tested the ability of transduced cord blood CD34^+ cells to engraft irradiated NSG mice. A fraction of transduced cells was assessed in parallel liquid culture and colony forming assays. […]

Setting [5] is: NSG mice, 19 weeks after injection.

Turning to `Cn1cnc(N)c2ncnc1-2` [3-methyadenine, 3-methyladenine], in data set [1] (autophagosome formation inhibited during transduction), the GFP expression entry is “decreased”.

Turning to `CO[C@H]1C[C@@H]2CC[C@@H](C)[C@@](O)(O2)C(=O)C(=O)N2CCCC[C@H]2C(=O)O[C@H]([C@H](C)C[C@@H]2CC[C@@H](O)[C@H](OC)C2)CC(=O)[C@H](C)/C=C(\C)[C@@H](O)[C@@H](OC)C(=O)[C@H](C)C[C@H](C)/C=C/C=C/C=C/1C` [rapamycin], in data set [2], the “increase in per cell amount of 2-LTR circles” value was 2-to-3 fold and the “increase in per cell amount of viral full-length DNA” value is reported as 2-to-3 fold. Further, the “increase in percentage of GFP expressing cells” value in data set [3] is recorded as 17%. Moreover, the “up-regulation in p21 mRNA” value in the data set on p21 mRNA is 3-5 fold. In addition, the “GFP positivity (percentage of GFP-expressing cells)” value in data set [1] (pre-stimulated cord blood CD34+ cells, rapamycin present during transduction, 11-14 days in culture, control 40%) worked out at 80%. For the same compound, the “GFP positivity in human CD45+ cells in mouse bone marrow” value in the data set on NSG-repopulating cells (20 μg/ml rapamycin during transduction, 19 weeks, control 20%) was determined as 80%. In the data set with NSG-repopulating cells (setting [5]), the “long-term engraftment ability of CD34+ cells” value is given as “did not impair” and the “reconstitution levels in bone marrow vs control” value is “not statistically different”. Also, in data set [4] (human hematopoietic stem cells), the “gene marking frequency relative to other known methods of treatment” value is on record as 4-5 fold. Moreover, the “EGFP-marked human cell populations in secondary recipients” value in data set [4] (secondary mouse recipients) is given as over 90%. Also, the “efficiency or proportion of colony formation” value with cord blood CD34+ cells is “did not significantly affect”.

On to `CCC(=O)N1CCN(c2ccc(-n3c(=O)ccc4cnc5ccc(-c6cnc7ccccc7c6)cc5c43)cc2C(F)(F)F)CC1` [Torin 1], for which, in data set [1] (5 μM), the “in vitro transduction efficiency relative to DMSO control” value is “enhanced” and the “transduction enhancement compared with rapamycin” value is “comparable”.

Consider `CCN(CC)CCCC(C)Nc1ccnc2cc(Cl)ccc12` (stereo not shown) [chloroquine], for which the transduction efficiency result in data set [1] is “decreased”.

For `CO/C1=C\C(C)=C\[C@@H](C)[C@@H](O)[C@@H](C)C/C(C)=C/C=C/[C@H](OC)[C@@H]([C@@H](C)[C@@H](O)[C@H](C)[C@@]2(O)C[C@@H](O)[C@H](C)[C@@H](C(C)C)O2)OC1=O` [bafilomycin Al], in data set [1], the transduction efficiency entry was “decreased”.
